Data published in patent US20250230193A1, “CYCLIC COMPOUND HAVING SELECTIVE KRAS INHIBITORY EFFECT ON HRAS AND NRAS” (CHUGAI SEIYAKU KABUSHIKI KAISHA, priority 2022, published 2025).

Key:
[1] = target: GDP-bound NRAS wild-type protein (Homo sapiens, UniProt P01111); experiment: Binding to NRAS by surface plasmon resonance (SPR), Single Cycle Kinetics; conditions: KD ratio NRAS/KRAS, class symbols
[2] = target: GDP-bound HRAS wild-type protein (Homo sapiens, UniProt P01112); experiment: Binding to HRAS by surface plasmon resonance (SPR), Single Cycle Kinetics; conditions: KD ratio HRAS/KRAS, class symbols
GDP-bound HRAS wild-type protein, sequence (P01112 whole entry): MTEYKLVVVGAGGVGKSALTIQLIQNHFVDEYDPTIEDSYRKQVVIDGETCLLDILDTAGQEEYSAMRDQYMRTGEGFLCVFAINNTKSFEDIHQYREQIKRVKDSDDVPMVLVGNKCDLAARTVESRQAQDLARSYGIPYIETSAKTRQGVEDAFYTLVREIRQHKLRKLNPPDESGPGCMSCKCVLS

GDP-bound NRAS wild-type protein, sequence (P01111 whole entry): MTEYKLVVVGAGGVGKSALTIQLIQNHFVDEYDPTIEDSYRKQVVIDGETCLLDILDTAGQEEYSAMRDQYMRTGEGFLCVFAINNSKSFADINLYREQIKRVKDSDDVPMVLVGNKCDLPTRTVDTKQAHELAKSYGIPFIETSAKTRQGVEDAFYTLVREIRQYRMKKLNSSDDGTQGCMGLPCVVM

Compound | NRAS/KRAS (ratio of KD value with respect to GDP-bound NRAS wild-type protein to KD value with respect to KRAS) [1] | HRAS/KRAS (ratio of KD value with respect to GDP-bound HRAS wild-type protein to KD value with respect to KRAS) [2]
CCC[C@H]1C(=O)N[C@@H]([C@@H](C)CC)C(=O)N(C)CC(=O)N(C)[C@H]2C/C=C\CCN(C2=O)[C@@H](Cc2ccc(C(F)(F)F)cc2)C(=O)N(C)CC(=O)N[C@@H](CCc2cc(F)c(C(F)F)c(F)c2)C(=O)N2C[C@H](OCC)C[C@H]2C(=O)NC2(CC(C)(C)C2)C(=O)N(C)[C@@H](C2CCCC2)C(=O)N(C)[C@H](C(=O)N(C)C)CC(=O)N1C [PP2780] | A (a compound having 10 or more and less than 20 is denoted as A) | A (a compound having 10 or more and less than 20 is denoted as A)
CCC[C@H]1C(=O)N[C@@H]([C@@H](C)CC)C(=O)N(C)CC(=O)N(C)[C@H]2C/C=C\CCN(C2=O)[C@@H](Cc2ccc(C(F)(F)F)cc2)C(=O)N(C)CC(=O)N[C@@H](CCc2cc(F)c(C(F)F)c(F)c2)C(=O)N2C[C@H](OCC)C[C@H]2C(=O)NC2(CC(C)(C)C2)C(=O)N(C)[C@@H](C(CC)CC)C(=O)N(C)[C@H](C(=O)N(C)C)CC(=O)N1C [PP2781] | AA (a compound having 20 or more is denoted as AA) | A (a compound having 10 or more and less than 20 is denoted as A)
CCC[C@H]1C(=O)N[C@@H]([C@@H](C)CC)C(=O)N(C)CC(=O)N(C)[C@H]2C/C=C\CCN(C2=O)[C@@H](Cc2ccc(C)cc2)C(=O)N(C)CC(=O)N[C@@H](CCc2cc(F)c(C(F)F)c(F)c2)C(=O)N2C[C@H](OCC)C[C@H]2C(=O)NC2(CC(C)(C)C2)C(=O)N(C)[C@@H](C2CCCC2)C(=O)N(C)[C@H](C(=O)N(C)C)CC(=O)N1C [PP2782] | A (a compound having 10 or more and less than 20 is denoted as A) | A (a compound having 10 or more and less than 20 is denoted as A)
CCC[C@H]1C(=O)N[C@@H]([C@@H](C)CC)C(=O)N(C)CC(=O)N(C)[C@H]2C/C=C\CCN(C2=O)[C@@H](Cc2ccc(C(F)(F)F)cc2)C(=O)N(C)CC(=O)N[C@@H](CCc2ccc(Cl)c(C(F)(F)F)c2)C(=O)N2C[C@H](OCC)C[C@H]2C(=O)NC2(CC(C)(C)C2)C(=O)N(C)[C@@H](C2CCCC2)C(=O)N(C)[C@H](C(=O)N(C)C)CC(=O)N1C [PP2784] | A (a compound having 10 or more and less than 20 is denoted as A) | A (a compound having 10 or more and less than 20 is denoted as A)
CCC[C@H]1C(=O)N[C@@H]([C@@H](C)CC)C(=O)N(C)CC(=O)N(C)[C@H]2C/C=C\CCN(C2=O)[C@@H](Cc2ccc(C(F)(F)F)cc2)C(=O)N(C)CC(=O)N[C@@H](CCc2ccc(Cl)c(C(F)(F)F)c2)C(=O)N2C[C@H](OCC)C[C@H]2C(=O)NC2(CC(C)(C)C2)C(=O)N(C)[C@@H](C(CC)CC)C(=O)N(C)[C@H](C(=O)N(C)C)CC(=O)N1C [PP2785] | AA (a compound having 20 or more is denoted as AA) | A (a compound having 10 or more and less than 20 is denoted as A)
CCC[C@H]1C(=O)N[C@@H]([C@@H](C)CC)C(=O)N(C)CC(=O)N(C)[C@H]2C/C=C\CCN(C2=O)[C@@H](Cc2ccc(C)cc2)C(=O)N(C)CC(=O)N[C@@H](CCc2ccc(Cl)c(C(F)(F)F)c2)C(=O)N2C[C@H](OCC)C[C@H]2C(=O)NC2(CC(C)(C)C2)C(=O)N(C)[C@@H](C2CCCC2)C(=O)N(C)[C@H](C(=O)N(C)C)CC(=O)N1C [PP2786] | A (a compound having 10 or more and less than 20 is denoted as A) | A (a compound having 10 or more and less than 20 is denoted as A)
CCC[C@H]1C(=O)N[C@@H]([C@@H](C)CC)C(=O)N(C)CC(=O)N(C)[C@H]2C/C=C\CCN(C2=O)[C@@H](Cc2ccc(C)cc2)C(=O)N(C)CC(=O)N[C@@H](CCc2ccc(Cl)c(C(F)(F)F)c2)C(=O)N2C[C@H](OCC)C[C@H]2C(=O)NC2(CC(C)(C)C2)C(=O)N(C)[C@@H](C(CC)CC)C(=O)N(C)[C@H](C(=O)N(C)C)CC(=O)N1C [PP2787] | AA (a compound having 20 or more is denoted as AA) | A (a compound having 10 or more and less than 20 is denoted as A)
CCC[C@H]1C(=O)N[C@@H]([C@@H](C)CC)C(=O)N(C)CC(=O)N(C)[C@H]2C/C=C\CCN(C2=O)[C@@H](Cc2ccc(C(F)(F)F)cc2)C(=O)N(C)CC(=O)N[C@@H](CCc2ccc(Cl)c(OC)c2)C(=O)N2C[C@H](OCC)C[C@H]2C(=O)NC2(CC(C)(C)C2)C(=O)N(C)[C@@H](C2CCCC2)C(=O)N(C)[C@H](C(=O)N(C)C)CC(=O)N1C [PP2788] | A (a compound having 10 or more and less than 20 is denoted as A) | A (a compound having 10 or more and less than 20 is denoted as A)
CCC[C@H]1C(=O)N[C@@H]([C@@H](C)CC)C(=O)N(C)CC(=O)N(C)[C@H]2C/C=C\CCN(C2=O)[C@@H](Cc2ccc(C(F)(F)F)cc2)C(=O)N(C)CC(=O)N[C@@H](CCc2ccc(Cl)c(OC)c2)C(=O)N2C[C@H](OCC)C[C@H]2C(=O)NC2(CC(C)(C)C2)C(=O)N(C)[C@@H](C(CC)CC)C(=O)N(C)[C@H](C(=O)N(C)C)CC(=O)N1C [PP2789] | AA (a compound having 20 or more is denoted as AA) | A (a compound having 10 or more and less than 20 is denoted as A)
CCC[C@H]1C(=O)N[C@@H]([C@@H](C)CC)C(=O)N(C)CC(=O)N(C)[C@H]2C/C=C\CCN(C2=O)[C@@H](Cc2ccc(C)cc2)C(=O)N(C)CC(=O)N[C@@H](CCc2ccc(Cl)c(OC)c2)C(=O)N2C[C@H](OCC)C[C@H]2C(=O)NC2(CC(C)(C)C2)C(=O)N(C)[C@@H](C2CCCC2)C(=O)N(C)[C@H](C(=O)N(C)C)CC(=O)N1C [PP2790] | A (a compound having 10 or more and less than 20 is denoted as A) | A (a compound having 10 or more and less than 20 is denoted as A)
CCCC[C@H]1C(=O)N[C@@H]([C@@H](C)CC)C(=O)N(C)CC(=O)N(C)[C@H]2C/C=C\CCN(C2=O)[C@@H](Cc2ccc(C)cc2)C(=O)N(C)CC(=O)N[C@@H](CCc2cc(F)c(C(F)(F)F)c(F)c2)C(=O)N2C[C@H](OCC)C[C@H]2C(=O)NC2(CCC2)C(=O)N(C)[C@@H](C2CCCC2)C(=O)N(C)[C@H](C(=O)N(C)CC)CC(=O)N1C [PP2796] | A (a compound having 10 or more and less than 20 is denoted as A) | A (a compound having 10 or more and less than 20 is denoted as A)
CCC[C@H]1C(=O)N[C@@H]([C@@H](C)CC)C(=O)N(C)CC(=O)N(C)[C@H]2C/C=C\CCN(C2=O)[C@@H](Cc2ccc(C)cc2)C(=O)N(C)CC(=O)N[C@@H](CCc2cc(F)c(C(F)(F)F)c(F)c2)C(=O)N2C[C@H](OCC)C[C@H]2C(=O)NC2(CC(C)(C)C2)C(=O)N(C)[C@@H](CC2CC2)C(=O)N(C)[C@H](C(=O)N(C)C)CC(=O)N1C [PP2797] | A (a compound having 10 or more and less than 20 is denoted as A) | A (a compound having 10 or more and less than 20 is denoted as A)
CCCC[C@H]1C(=O)N[C@@H]([C@@H](C)CC)C(=O)N(C)CC(=O)N(C)[C@H]2C/C=C\CCN(C2=O)[C@@H](Cc2ccc(C)cc2)C(=O)N(C)CC(=O)N[C@@H](CCc2cc(F)c(C(F)(F)F)c(F)c2)C(=O)N2C[C@H](OCC)C[C@H]2C(=O)NC2(CCC2)C(=O)N(C)[C@@H](C2CCCC2)C(=O)N(C)[C@H](C(=O)N(C)C)CC(=O)N1C [PP2798] | A (a compound having 10 or more and less than 20 is denoted as A) | A (a compound having 10 or more and less than 20 is denoted as A)
CCC[C@H]1C(=O)N[C@@H]([C@@H](C)CC)C(=O)N(C)CC(=O)N(C)[C@H]2C/C=C\CCN(C2=O)[C@@H](Cc2ccc(C)cc2)C(=O)N(C)CC(=O)N[C@@H](CCc2ccc(Cl)c(Cl)c2)C(=O)N2C[C@H](OCC)C[C@H]2C(=O)NC2(CC(C)(C)C2)C(=O)N(C)[C@@H](CC2CC2)C(=O)N(C)[C@H](C(=O)N(C)C)CC(=O)N1C [PP2799] | A (a compound having 10 or more and less than 20 is denoted as A) | A (a compound having 10 or more and less than 20 is denoted as A)
CCCC[C@H]1C(=O)N[C@@H]([C@@H](C)CC)C(=O)N(C)CC(=O)N(C)[C@H]2C/C=C\CCN(C2=O)[C@@H](Cc2ccc(C)cc2)C(=O)N(C)CC(=O)N[C@@H](CCc2cc(F)c(C(F)(F)F)c(F)c2)C(=O)N2C[C@H](OCC)C[C@H]2C(=O)NC2(CC(C)(C)C2)C(=O)N(C)[C@@H](C2CCCC2)C(=O)N(C)[C@H](C(=O)N(C)C)CC(=O)N1C [PP2800] | A (a compound having 10 or more and less than 20 is denoted as A) | A (a compound having 10 or more and less than 20 is denoted as A)
CC[C@H](C)[C@@H]1NC(=O)[C@H](CC2CC2)N(C)C(=O)C[C@@H](C(=O)N(C)CC)N(C)C(=O)[C@H](C2CCCC2)N(C)C(=O)C2(CC(C)(C)C2)NC(=O)[C@@H]2C[C@@H](F)CN2C(=O)[C@H](CCc2cc(F)c(C(F)(F)F)c(F)c2)NC(=O)CN(C)C(=O)[C@H](Cc2ccc(C)cc2)N2CC/C=C\C[C@@H](C2=O)N(C)C(=O)CN(C)C1=O [PP2802] | AA (a compound having 20 or more is denoted as AA) | A (a compound having 10 or more and less than 20 is denoted as A)
